According to patent publication US8883963B2 (Cadila Healthcare Limited, priority 2007, dated 2014):

Experiments:
Human GLP-1 receptor = biological target: T1, Human GLP-1 receptor (Homo sapiens, UniProt P43220); experiment: In vitro Human GLP-1 R agonist activity (cyclic AMP determination) in CHO/human GLP1R cells; type: cell-based
T1 construct: The full-length cDNA was cloned in pcDNA3.1(+); expressed in transfected cells
Protocol: The novel peptidomimetics were screened for Human GLP-1 receptor (HGLP-1 R) agonist activity (in vitro), using the cAMP cell-based assay, in stably transfected CHO/human GLP1R cells. […] CHO cells were grown in Ham's F12 medium containing L-Glutamine (2 mM), HEPES (25 mM), NaHCO3 (1.1 g/L) and supplemented with NewBorn Calf Serum (NBCS; 10%), Penicillin (50 U/ml (v/v)) and Streptomycin (50 ug/ml (v/v)). Cells were split every 3 days 1:8.
The cDNA encoding the human GLP-1 receptor was isolated by RT-PCR according to standard protocol. The full-length cDNA was cloned in pcDNA3.1(+). […] Clones expressing the receptor were generated by G418 (800 μg/ml active, Sigma) selection. The stable clones were thereafter maintained at 500 ug/ml (G418). The selected clone was used between passages 9-25 for cAMP assays.
The trypsin was inactivated using Ham's F12 medium containing 10% NBCS and the cells were suspended in 2 ml of complete medium. […] The medium was aspirated off from the 12 well plate and the cells were washed once using Ham's F12 (plain). […] The cells were incubated with the test compounds for 30 min in humidified atmosphere and 37° C. After the incubation, the medium was removed and cells were washed once with plain Ham's F12. Subsequently, the cells were lysed by adding 500 ul of ice cold 0.1 N HCl to each well and shaking for 30 minutes at 200 rpm. The cells were then scrapped, the lysate was collected in micro centrifuge tubes and centrifuged at 12000 rpm for 10 min to remove the debris. 300 ul of supernatant from each micro-centrifuge tube was then removed into a glass tube and dried under N2 for 30 min, for cAMP estimation. The total cAMP was estimated from the sample according to the manufacturer's protocol using Cyclic AMP immunoassay kit (R&D systems, Minneapolis. MN). The remaining supernatant is used to determine the protein concentration using micro BCA (Sigma). Data is calculated as percent of control (Vehicle: water) and expressed as Mean±SD.

DPP IV = DPP IV (Homo sapiens, UniProt P27487); experiment: Stability against DPP IV enzyme; type: in vitro ADME; settings: 37° C.; for % degradation of peptidomimetics in 24 h when incubated with DPP-IV enzyme: 2 μM peptidomimetic; for half-life at 2 μM: DPP IV enzyme, pH 7.8, 2 μM peptidomimetic, read-out: half-life (t1/2) when incubated with DPP-IV enzyme
Protocol: (§1) Reactions were terminated by the addition of TFA/H2O (15 mL, 10% (v/v)). […] The column was equilibrated with TFA/H20, at a flow rate of 1 mL/min.

[1] = Stability in human plasma; type: in vitro ADME; settings: 2 μM peptidomimetic, pooled human plasma, 37° C.; for half-life at 2 μM: pH 7.8, read-out: half-life (t1/2) when incubated with human plasma
Protocol: as §1

[2] = Stability in simulated gastric fluid; type: in vitro ADME; settings: 2 μM peptidomimetic, simulated gastric fluid pH 1.5, 37° C.; for half-life at 2 μM: read-out: half-life (t1/2) when incubated with simulated gastric fluid
Protocol: as §1

[3] = Stability in simulated intestinal fluid; type: in vitro ADME; settings: 2 μM peptidomimetic, simulated intestinal fluid pH 7.5, 37° C.; for half-life at 2 μM: read-out: half-life (t1/2) when incubated with simulated intestinal fluid
Protocol: as §1

[4] = Stability in liver microsomes; type: in vitro ADME; settings: 2 μM peptidomimetic, human liver microsomes, 37° C.; for half-life at 2 μM: pH 7.8, read-out: half-life (t1/2) when incubated with liver microsomes
Protocol: as §1

DPP IV, sequence (P27487 whole entry, species assumed): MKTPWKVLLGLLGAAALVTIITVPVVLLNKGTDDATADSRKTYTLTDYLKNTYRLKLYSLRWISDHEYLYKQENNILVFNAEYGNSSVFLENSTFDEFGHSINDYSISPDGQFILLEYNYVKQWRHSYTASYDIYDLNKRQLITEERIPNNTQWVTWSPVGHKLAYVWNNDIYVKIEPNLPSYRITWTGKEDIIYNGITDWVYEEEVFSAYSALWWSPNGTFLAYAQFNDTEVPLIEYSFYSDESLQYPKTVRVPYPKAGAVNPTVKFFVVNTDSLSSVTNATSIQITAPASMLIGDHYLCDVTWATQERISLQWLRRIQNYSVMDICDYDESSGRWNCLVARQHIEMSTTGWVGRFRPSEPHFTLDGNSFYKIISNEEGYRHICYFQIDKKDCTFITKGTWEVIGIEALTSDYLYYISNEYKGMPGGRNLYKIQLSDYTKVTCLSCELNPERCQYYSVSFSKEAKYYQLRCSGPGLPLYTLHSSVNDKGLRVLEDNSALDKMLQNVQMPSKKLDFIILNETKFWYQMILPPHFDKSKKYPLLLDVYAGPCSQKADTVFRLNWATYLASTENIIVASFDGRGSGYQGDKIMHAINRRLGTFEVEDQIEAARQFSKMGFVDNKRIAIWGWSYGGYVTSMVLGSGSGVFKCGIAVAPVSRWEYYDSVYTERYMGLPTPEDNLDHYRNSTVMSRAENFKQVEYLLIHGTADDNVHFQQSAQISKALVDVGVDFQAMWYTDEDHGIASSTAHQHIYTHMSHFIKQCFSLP
T1 sequence (P43220 24-463): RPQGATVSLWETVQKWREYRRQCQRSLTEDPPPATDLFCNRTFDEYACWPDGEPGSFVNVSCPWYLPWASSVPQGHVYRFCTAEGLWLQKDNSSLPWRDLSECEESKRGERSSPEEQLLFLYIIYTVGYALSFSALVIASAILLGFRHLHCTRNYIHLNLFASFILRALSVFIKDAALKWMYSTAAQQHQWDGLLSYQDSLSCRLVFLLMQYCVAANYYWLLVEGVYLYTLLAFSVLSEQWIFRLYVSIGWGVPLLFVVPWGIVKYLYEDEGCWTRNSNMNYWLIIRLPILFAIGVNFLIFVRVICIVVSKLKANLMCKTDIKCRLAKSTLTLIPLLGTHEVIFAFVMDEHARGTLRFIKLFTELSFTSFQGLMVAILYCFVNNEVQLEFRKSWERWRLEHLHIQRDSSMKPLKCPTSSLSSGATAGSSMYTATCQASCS

Row | SMILES | Human GLP-1 R activity (cAMP release), % activity with respect to control (Human GLP-1 receptor; 1 nM test compound) [%] | Human GLP-1 R activity (cAMP release), % activity with respect to control (Human GLP-1 receptor; 10 nM test compound) [%] | Human GLP-1 R activity (cAMP release), % activity with respect to control (Human GLP-1 receptor; 100 nM test compound) [%] | Human GLP-1 R activity (cAMP release), % activity with respect to control (Human GLP-1 receptor; 1 μM test compound) [%] | Human GLP-1 R activity (cAMP release), % activity with respect to control (Human GLP-1 receptor; 10 μM test compound) [%] | % degradation of peptidomimetics in 24 h when incubated with DPP-IV enzyme (DPP IV) [%] | half-life at 2 μM (DPP IV) [h] | % degradation of peptidomimetics in 24 h when incubated with human plasma [1] [%] | half-life at 2 μM [1] [h] | half-life (t1/2) when incubated with simulated gastric fluid [2] | % degradation of peptidomimetics in 24 h when incubated with simulated gastric fluid [2] [%] | half-life (t1/2) when incubated with simulated intestinal fluid [3] | % degradation of peptidomimetics in 24 h when incubated with simulated intestinal fluid [3] [%] | % degradation of peptidomimetics in 24 h when incubated with liver microsomes [4] [%] | half-life at 2 μM [4] [h] | half-life at 2 μM [2] [h] | half-life at 2 μM [3] [h] | half-life (t1/2) when incubated with liver microsomes [4]
1 | CCc1cc(OC)ccc1-c1ccc(CC(NC(=O)[C@H](CC(=O)O)NC(=O)[C@H](CO)NC(=O)[C@@H](NC(=O)[C@H](Cc2ccccc2)NC(=O)[C@@H](NC(=O)CNC(=O)[C@H](CCC(N)=O)NC(=O)[C@H](C)NC(=O)[C@@H](N)Cc2c[nH]cn2)[C@@H](C)O)[C@@H](C)O)C(=O)NC(CCCc2ccc(Cl)cc2C)C(N)=O)cc1 (single isomer, unassigned) [compound 16] | 99 ± 0.11 | 99 ± 0.13 | 99 ± 0.16 | 99 ± 0.06 | 99 ± 0.10 | 70 | 9 | 71 | 8 | (8) h | 14 | (6) h | 40 | 78 | 1 |  |  | 
2 | CCc1cc(OC)ccc1-c1ccc(CC(NC(=S)[C@H](CC(=O)O)NC(=O)[C@H](CO)NC(=O)[C@@H](NC(=O)C(C)(Cc2ccccc2F)NC(=O)[C@@H](NC(=O)CNC(=O)C(CCC#N)NC(=O)C(C)(C)NC(=O)[C@@H](N)Cc2c[nH]cn2)[C@H](C)O)[C@H](C)O)C(=S)NC(CCCc2ccccc2F)C(N)=O)cc1 (single isomer, unassigned) [compound 180] | 40 ± 0.11 | 81 ± 0.09 | 89 ± 0.06 | 96 ± 0.14 | 99 ± 0.19 | 00 | > 24 | 00 | > 24 |  | 50 |  | 00 | 86 | 2 | 4 | > 24 | 
3 | CCc1cc(OC)ccc1-c1ccc(CC(NC(=O)[C@H](CC(=O)O)NC(=O)[C@H](CO)NC(=O)[C@@H](NC(=O)C(C)(Cc2ccccc2F)NC(=O)[C@@H](NC(=O)CNC(=O)[C@H](CC(C(F)(F)F)C(F)(F)F)NC(=O)C(C)(C)NC(=O)[C@@H](N)Cc2c[nH]cn2)[C@@H](C)O)[C@H](C)O)C(=O)NC(CCCc2ccccc2F)C(N)=O)cc1 (single isomer, unassigned) [compound 224] | 99 ± 0.06 | 99 ± 0.06 | 99 ± 0.08 | 99 ± 0.10 | 99 ± 0.12 | 00 | > 24 | 00 | > 24 |  | 00 |  | 00 | 26 |  | > 24 | > 24 | (5) h
